Reference: patent publication US8217000B2, “Method for elevating prolactin in mammals” (Cara Therapeutics, Inc., priority 2006, dated 2012)
Where a name gives a salt, the structure may show the parent alone. Non-standard residues stand in square brackets, D forms with d. Residues, ends and D or L forms follow the SMILES beside them. *: point of attachment. NH(4-picolyl) = c1cc(CN*)ccn1; dNle = CCCC[C@@H](N)C(=O)O

Test: Plasma pharmacokinetics of CR665 after single IV infusion in human subjects
Settings: for half-life / clearance / Vd / AUC(0-t) / AUC(0-inf) / Cmax / MRT / Tmax: human, plasma; for clearance: CL; for AUC(0-t): AUC0-t; for AUC(0-inf): AUC0-∞; for MRT: MRTint; for Tmax: median
Procedure: This clinical study was conducted as a double blind, placebo controlled, ascending single intravenous (IV) dose, sequential group study. This study was double blind and placebo controlled in order to avoid bias in the collection and evaluation of data during its conduct. […] In each group, subjects received CR665 or placebo. Doses were administered as a single constant rate IV infusion over 1 hour (part A) or 5 minutes (part B) on the morning of Day 1. Doses were administered in an escalating manner following satisfactory review of the safety data and pharmacokinetic data from the lower dose levels. There was a minimum of 6 days between dose escalations to allow sufficient time for an adequate safety review.
Plasma and urine samples for the analysis of CR665 and N oxide metabolite were prepared by solid phase extraction. The centrifuged eluates were quantified by liquid chromatography with tandem mass spectrometric detection (LC MS/MS). The lower limit of quantification was 1 ng/mL.
For pharmacokinetic assessments, blood samples (1×3 mL) were taken from the contralateral forearm vein(s) at the following times: Pre-dose, 15 minutes, 30 minutes, 45 minutes, 1 hour (immediately prior to the end of infusion), 1 hour 5 minutes, 1 hour 10 minutes, 1 hour 15 minutes, 1.5, 2, 2.5, 3, 4, 6, 8, 12, 16, 24, 36 and 48 hours after the start of the infusion). An indwelling cannula (Venflon®; BOC Ohmeda AB, Sweden) was used for all blood collection pre-dose and up to at least 12 hours after the start of the infusion. Otherwise, samples were collected using venipuncture. Blood samples were collected into pre-chilled 3 mL K3EDTA Vacutainer™ tubes (Becton Dickinson UK, Ltd., Oxford) and, after mixing, were placed in a cool box containing crushed ice/water. The samples were centrifuged, within 30 minutes of collection, at 1500 g for 10 minutes at approximately 4° C. For each sample, the separated plasma was transferred into two 5 mL suitably labeled polypropylene tubes, and stored immediately at approximately −20° C. Plasma samples were analyzed for CR665 using liquid chromatography with tandem mass spectrometric detection.
The pharmacokinetic analysis was conducted using WinNonlin Enterprise Version 4.0.1.
Pharmacokinetic parameters were determined from the plasma and urine, concentrations of CR665 and the N-oxide metabolite using non compartmental procedures.
Dose and body weight normalized values (norm) were determined for AUC0-t, AUC0-∞, Cinf and Cmax. Body weight normalized values [norm] were determined for Vz, Vss, CL and CLR.
The pharmacokinetic analysis was conducted using model independent methods as implemented in WinNonlin software, based on plasma concentrations of CR665 from those subjects who have received CR665 and have evaluable plasma concentration-time profiles.
The following plasma pharmacokinetic parameters were determined for CR665: • Cmax Maximum plasma concentration • tmax Time of maximum plasma concentration • t1/2z Terminal half-life=ln(2)/λz • AUC0-1 Area under the plasma concentration-time curve from time zero to time t (time of last quantifiable plasma concentration) • AUCinf Area under the plasma concentration-time curve from time zero to infinity calculated as [AUC0-t+(Clast/λz)] where Clast is the estimated concentration at the last quantifiable concentration curve. • λz Terminal-phase rate constant, also known as Kel • CL Total body clearance=Dose/AUCinf • Vz Volume of distribution based on terminal phase calculated as Vz/F=Dose/λz*AUCinf
Individual elapsed sampling times were used in the pharmacokinetic analysis. Cmax and tmax were obtained directly from the experimental observations. For the purpose of calculating AUC0-t, when two consecutive plasma concentrations below the lower limit of quantification (LLOQ) were encountered after tmax, all subsequent values were excluded from the analysis.

[1] = female, iv, 0.06 mg/kg, females, 5-minute IV infusion, geometric mean
[2] = female, iv, 0.24 mg/kg, females, 1-hour IV infusion, geometric mean
[3] = females, 0.24 mg/kg dose level as printed, Part B text
[4] = male, iv, 0.015 mg/kg, males, 1 hour IV infusion, geometric mean
[5] = male, iv, 0.03 mg/kg, males, 5-minute IV infusion, geometric mean
[6] = male, iv, 0.03 mg/kg, males, 1 hour IV infusion, geometric mean

CCCC[C@@H](NC(=O)[C@@H](Cc1ccccc1)NC(=O)[C@H](N)Cc1ccccc1)C(=O)N[C@H](CCCNC(=N)N)C(=O)NCc1ccncc1 [CR665, D-phenylalanyl-D-phenylalanyl-D-norleucyl-N-(4-pyridinylmethyl)-D-argininamide, acetate salt] (H-[dF][dF][dNle][dR]-{NH(4-picolyl)})
half-life (both, intravenous, 0.24 mg/kg, Mean terminal elimination half-life, male and female subjects, 1-hour infusion): 72 to 84 min
clearance (female, intravenous, 0.06 mg/kg, geometric least squares mean, females, 5-minute infusion): 544 mL/min
half-life (female, intravenous, 0.06 mg/kg, Mean terminal elimination half life, females, 5-minute infusion): ~48 min
Vd (female, intravenous, 0.06 mg/kg, Vss, geometric least squares mean, females, 5-minute infusion): 14.1 L
Vd (female, intravenous, 0.06 mg/kg, Vz, geometric least squares mean, females, 5-minute infusion): 45.7 L
half-life (female, intravenous, 0.06 mg/kg, t1/2, geometric least squares mean, females, 5-minute infusion): 56.8 min
clearance (female, intravenous, 0.24 mg/kg, geometric least squares mean, females, 1-hour infusion): 573 mL/min
half-life (female, intravenous, 0.24 mg/kg, Mean terminal elimination half-life, females, 1-hour infusion): 72 min
Vd (female, intravenous, 0.24 mg/kg, Vss, geometric least squares mean, females, 1-hour infusion): 17 L
Vd (female, intravenous, 0.24 mg/kg, Vz, geometric least squares mean, females, 1-hour infusion): 50.2 L
half-life (female, intravenous, 0.24 mg/kg, t1/2, geometric least squares mean, females, 1-hour infusion): 63 min
AUC(0-t) [1]: 120 ng·h/mL
AUC(0-inf) [1]: 122 ng·h/mL
clearance [1]: 544 mL/min
Cmax [1]: 520 ng/mL
MRT [1]: 25.1 min
Vd (female, iv, 0.06 mg/kg, Vss, females, 0.06 mg/kg, 5-minute IV infusion, geometric mean): 13.7 L
Vd (female, iv, 0.06 mg/kg, Vz, females, 5-minute IV infusion, geometric mean): 39.2 L
half-life (female, iv, 0.06 mg/kg, t1/2, females, 5-minute IV infusion, geometric mean): 50 min
Tmax (female, iv, 0.06 mg/kg, females, 5-minute IV infusion): 5 min
AUC(0-t) [2]: 440 ng·h/mL
AUC(0-inf) [2]: 442 ng·h/mL
clearance [2]: 557 mL/min
Cmax [2]: 384 ng/mL
MRT [2]: 30.9 min
Vd (female, iv, 0.24 mg/kg, Vss, females, 0.24 mg/kg, 1-hour IV infusion, geometric mean): 17.2 L
Vd (female, iv, 0.24 mg/kg, Vz, females, 1-hour IV infusion, geometric mean): 55.7 L
half-life (female, iv, 0.24 mg/kg, t1/2, females, 1-hour IV infusion, geometric mean): 69.6 min
Tmax (female, iv, 0.24 mg/kg, females, 1-hour IV infusion): 45 min
AUC0-t (norm), ratio of geometric least squares means 5-minute:1-hour (females): 1.04
AUC0-∞ (norm), ratio of geometric least squares means 5-minute:1-hour (females): 1.05
CL, ratio of geometric least squares means 5-minute:1-hour (females): 0.950
Cmax (norm), ratio of geometric least squares means 5-minute:1-hour (females): 5.27
Cmax, fold higher for the 5-minute compared to the 1-hour infusion (females): 5.3 fold
MRTint, ratio of geometric least squares means 5-minute:1-hour (females): 0.864
Vss, ratio of geometric least squares means 5-minute:1-hour (females): 0.832
Vz, ratio of geometric least squares means 5-minute:1-hour (females): 0.911
t1/2, ratio of geometric least squares means 5-minute:1-hour (females): 0.901
Between-subject variability (CV %) for AUC0-∞ [3]: 8.8%
Between-subject variability (CV %) for Cmax [3]: 18.8%
MRTint, geometric least squares mean (females, 1-hour infusion): 29.9 min
MRTint, geometric least squares mean (females, 5-minute infusion): 25.8 min
half-life (intravenous, Apparent elimination half life, individual subjects, males, 0.12 to 0.48 mg/kg, 1 hour infusion): 72 to 180 min
Vd (male, intravenous, Apparent volume of distribution at steady state (VSS), males, 0.12 to 0.48 mg/kg dose range): 19 to 23 L
clearance (male, intravenous, geometric least squares mean, males, 1-hour infusion, Parts A & B): 557 mL/min
clearance (male, intravenous, geometric least squares mean, males, 5-minute infusion, Parts A & B): 538 mL/min
half-life (male, intravenous, Mean apparent elimination half life, males, 0.015 to 0.06 mg/kg, 1 hour infusion): ~42 min
half-life (male, intravenous, Mean apparent elimination half life, males, 0.03 to 0.09 mg/kg, 5-minute infusion): 60 to 78 min
half-life (male, intravenous, Mean apparent elimination half life, males, 0.12 to 0.48 mg/kg, 1 hour infusion): 84 to 114 min
Vd (male, intravenous, Vss, geometric least squares mean, males, 1-hour infusion, Parts A & B): 20.1 L
Vd (male, intravenous, Vss, geometric least squares mean, males, 5-minute infusion, Parts A & B): 18.1 L
Vd (male, intravenous, Vz, geometric least squares mean, males, 1-hour infusion, Parts A & B): 59.1 L
Vd (male, intravenous, Vz, geometric least squares mean, males, 5-minute infusion, Parts A & B): 61 L
half-life (male, intravenous, t1/2, geometric least squares mean, males, 1-hour infusion, Parts A & B): 75 min
half-life (male, intravenous, t1/2, geometric least squares mean, males, 5-minute infusion, Parts A & B): 76.8 min
AUC(0-t) [4]: 30 ng·h/mL
AUC(0-inf) [4]: 31.4 ng·h/mL
clearance [4]: 560 mL/min
Cmax [4]: 27.8 ng/mL
MRT [4]: 30.7 min
Vd (male, iv, 0.015 mg/kg, Vss, males, 0.015 mg/kg, 1 hour IV infusion, geometric mean): 17.2 L
Vd (male, iv, 0.015 mg/kg, Vz, males, 1 hour IV infusion, geometric mean): 33.5 L
half-life (male, iv, 0.015 mg/kg, t1/2, males, 1 hour IV infusion, geometric mean): 41.5 min
Tmax (male, iv, 0.015 mg/kg, males, 1 hour IV infusion): 60 min
AUC(0-t) [5]: 65.9 ng·h/mL
AUC(0-t) [6]: 70 ng·h/mL
AUC(0-inf) [5]: 68.4 ng·h/mL
AUC(0-inf) [6]: 72.5 ng·h/mL
clearance [5]: 473 mL/min
clearance [6]: 538 mL/min
Cmax [5]: 233 ng/mL
Cmax [6]: 65.3 ng/mL
MRT [5]: 36.9 min
MRT [6]: 30.6 min
Vd (male, iv, 0.03 mg/kg, Vss, males, 0.03 mg/kg, 5-minute IV infusion, geometric mean): 17.4 L
Vd (male, iv, 0.03 mg/kg, Vss, males, 0.03 mg/kg, 1 hour IV infusion, geometric mean): 16.5 L
Vd (male, iv, 0.03 mg/kg, Vz, males, 5-minute IV infusion, geometric mean): 53.6 L
Vd (male, iv, 0.03 mg/kg, Vz, males, 1 hour IV infusion, geometric mean): 34.1 L
half-life (male, iv, 0.03 mg/kg, t1/2, males, 5-minute IV infusion, geometric mean): 78.6 min
half-life (male, iv, 0.03 mg/kg, t1/2, males, 1 hour IV infusion, geometric mean): 43.9 min
Tmax (male, iv, 0.03 mg/kg, males, 5-minute IV infusion): 5 min
Tmax (male, iv, 0.03 mg/kg, males, 1 hour IV infusion): 60 min
AUC(0-t) (male, iv, 0.06 mg/kg, males, 5-minute IV infusion, geometric mean): 139 ng·h/mL
AUC(0-t) (male, iv, 0.06 mg/kg, males, 1 hour IV infusion, geometric mean): 129 ng·h/mL
